Measurements taken from patent US6632793B1, “Immunological activity for a peptide of the limulus anti-LPS factor” (Centro de Ingenieria Genetica y Biotecnologia, priority 1997, dated 2003).
Where a SMILES comes first, the peptide text is derived from it.

What was measured:
[1] = tested on: Mengo virus on cell line Hep-2; assay: Antiviral effect: inhibition of the cytopathic effect of Mengo virus on cell line Hep-2; assay type: cell-based; conditions: for Antiviral effect, 1 / Antiviral effect, 2 / Antiviral effect, 3 / Antiviral effect, Mean: 24 h pre-incubation; for Antiviral effect, 1: experiment 1; for Antiviral effect, 2: experiment 2; for Antiviral effect, 3: experiment 3; for Antiviral effect, Mean: mean of 3
Procedure: (§1) Then the cells were washed with saline solution and infected with […] of Mengo virus, provide by Institute of Molecular Biology, University of Zurich, which is multiplied in the cell line L929 murine fibroblasts. 18 h later degree of cell destruction was measured by fixation and staining, generally with crystal violet, for reading of cytophatic effect was used a photometer Ultramicroanalytical System (SUMA). A computer program in Pascal UCSD language for the microcomputer system was developed for all calculations and corrections (Ferrero et al., 1994, Biotecnologia Aplicada. Vol. 1:). In this case serial dilution's of human γ-IFN 70 000 IU/ml (MRI, Freeze-dried Reference Human Recombinant Gamma Interferon) was used as standard in order to define unit of antiviral activity. For this reason the antiviral protection shown by the peptide is related to International Units of γ-IFN (Ul/ml). As a negative control were used different peptides from proteins that bind endotoxin. LPS at 10 ng/ml was used as a positively control because is well known that it induced the production of IFNs (Manthey et al., 1994, J. Immunology. Vol. 153: 2653-2663). One unit of antiviral activity is define as the quantity of IFN able to produce an 50% inhibition of the viral replication.

human mononuclear cells = assay: Antiviral effect on Hep-2 cells of supernatant from human mononuclear cells stimulated with peptide; assay type: cell-based; conditions: for Antiviral effect of supernatant, 1: supernatant on Hep-2, experiment 1; for Antiviral effect of supernatant, 2: supernatant on Hep-2, experiment 2; for Antiviral effect of supernatant, 3: supernatant on Hep-2, experiment 3; for Antiviral effect of supernatant, Mean: supernatant on Hep-2, mean of 3
Procedure: as §1
Venous blood was obtained from healthy volunteers and Ficoll-Hypaque centrifugation, fractionated mononuclear cells. The mononuclear cells were washed and resuspended in endotoxin-free RPMI-1640 culture medium supplemented with 10% fetal calf serum. Concentration of 2×10^6 cells/ml were aliquoted into 24-well microtiter plates (Nunc, Denmark). The cells were then incubated with 14 and 28 μg/ml of different peptides: Limulus anti-LPS factor31-52 (LALF), Lipopolysaccharide Binding Protein86-99 (LBP) and 18 kDa Cationic Antimicrobial Protein108-128 (CAP-18), at 37° C. for 18 hours in 5% CO2. The cells were centrifuged at 3000 rpm for 5 min and then serial dilutions of supematants were assays for antiviral activity using the procedures described in the example 2.

Pseudomona aerukinosa = assay: Survival in mice model of fulminating Gram-negative peritoneal sepsis; assay type: in vivo, mice BalB/c
Procedure: A model of fulminating Gram-negative peritoneal sepsis was developed in mice BalB/c to characterize the efficacy of LALF peptide in protecting an immunologically intact host against serious infections. Groups of mice received LALF peptide (14 μg/0.1 ml) or saline control (0.1 ml) intraperitoneally 20 hours prior to infectious challenge. A doses of Pseudomona aerukinosa (2×10^8 bacterial/mice) producing a total mortality of approximately 90% (Browder et al., 1987, Surgery. Vol. 102: 206-214) was used in order to induce an experimental peritonitis. Survivor's mice were counted each 24 hours during 120 hours after bacterial challenge. Survival data were analyzed by statistical test Kaplan-Meyer, the significance analysis was determined using a long-rank test, table 5. Blood was collected for TNF quantification from the retroorbital sinus at the time 0, 20, 40, 60, 90, 120, 180, 240 min in the control group and peptide treated-mice. The concentration of TNF-α in mouse serum was determined using a specific ELISA kindly provided by. Dr. W. Buurman (University Hospital Maastrich, The Netherlands). FIG. 4.

TNF-α in mouse serum [2] = assay: Serum TNF after P. aeruginosa challenge in peptide-treated mice (ELISA); assay type: in vivo, mice BalB/c; conditions: 14 μg i.p. 20 h before P. aeruginosa; 0-240 min; FIG. 4
Procedure: Groups of mice received LALF peptide (14 μg/0.1 ml) or saline control (0.1 ml) intraperitoneally 20 hours prior to infectious challenge. […] Blood was collected for TNF quantification from the retroorbital sinus at the time 0, 20, 40, 60, 90, 120, 180, 240 min in the control group and peptide treated-mice. The concentration of TNF-α in mouse serum was determined using a specific ELISA kindly provided by.
Eight-week-old mice were injected i.p. with 14 μg of peptide in 0.1 ml saline or saline alone. Twenty hours after the mice were injected i.p. with a lethal doses of P. aeruginosa. At 0, 20, 40, 60, 90, 120, 180 and 240 min following the challenge, the mice were bled from the retroorbital sinus and the serum concentration of TNF was measured.

TNF-α in mouse serum [3] = assay: Serum TNF-α after intravenous injection of peptide in mice (ELISA); assay type: in vivo, mice BalB/c; conditions: 50 μg intravenously; serum at 0 h, 6 h, 24 h and 48 h; FIG. 3
Procedure: This approach was developed in mice BalB/c between 6-8 old. The mice were injected intravenously with 50 μg of peptide in 0.1 ml [2.5 mg/kg of body weight] or saline solution as a control. The behavior of animals was observed each 4 hours during 24 h. Survival was followed for one week. Blood was collected for TNF-α quantification from the retroorbital sinus at the time 0 h. 6 h, 24 h and 48 h in the control group and peptide treated-mice. The concentration of TNF-α in mouse serum was determined using a specific ELISA kindly provided by Dr. W. Buurman (University Hospital Maastrich, The Netherlands).

[4] = tested on: TNF-α in peritoneal macrophages; assay: TNF-α production in LPS-activated peritoneal macrophages pre-incubated with peptide; assay type: cell-based, Balb/c mice; conditions: 5 μM pre-incubation 18 h, then LPS 1 μg/ml; 1-24 h; FIG. 6
Procedure: Peritoneal elicited cells were obtained from Balb/c mice (CENPALAB, Havana, Cuba). Primary mouse macrophages was collected from the peritoneal cavity 4 days after intraperitoneal injection with 1 ml of 4% Brewer's thioglicollate broth. Cell were maintained in RPMI 1640 supplemented with 10% heat-inactivated fetal bovine serum, 2 mM L-glutamine, 200 units/ml penicillin, and 200 μg/ml streptomycin at 37° C. in 5% CO2/[…].
TNF-α assay: Cells were plated in 96-well plates at 2×10^6 cells/ml in 200 μl of medium and incubated at 37° C. for 2 h. Non-adherent cells were removed by repeated washing with PBS. Macrophages were pre-incubated with 5 μM of LALF peptide during 18 h, afterward were washed with RPMI medium in order to eliminate the peptide. Then macrophages were treated with LPS of E. coli 0111:B4, Sigma (1 μg/ml). TNF-α was determined in supematants from cultured cells at the time 1 h, 2 h, 4 h, 6 h and 24 h used a kit of ELISA kindly provided by [Dr. W. Buurman Univ. Hosp. Maastrich, Netherlands].
FIG. 6: Regulatory effect of LALF derived-peptide on TNF-α production in stimulated peritoneal macrophages. The macrophages were pretreated with 5 μM of LALF peptide during 18 hours and then the cells were activated with 1 μg of E. coli LPS. TNF-α was measured in the cells cultured supernatants at different time.

[5] = mononuclear cells stimulated with 14 μg/ml for 18 h
[6] = mononuclear cells stimulated with 28 μg/ml for 18 h

## CC[C@H](C)[C@H](NC(=O)[C@H](CCCNC(=N)N)NC(=O)[C@H](Cc1ccc(O)cc1)NC(=O)[C@H](Cc1c[nH]cn1)NC(=O)[C@@H](N)CS)C(=O)N[C@@H](CCCCN)C(=O)N1CCC[C@H]1C(=O)N[C@H](C(=O)N[C@@H](Cc1ccccc1)C(=O)N[C@@H](CCCNC(=N)N)C(=O)N[C@@H](CCCNC(=N)N)C(=O)N[C@@H](CC(C)C)C(=O)N[C@@H](CCCCN)C(=O)N[C@@H](Cc1c[nH]c2ccccc12)C(=O)N[C@@H](CCCCN)C(=O)N[C@@H](Cc1ccc(O)cc1)C(=O)N[C@@H](CCCCN)C(=O)NCC(=O)N[C@@H](CCCCN)C(=O)N[C@@H](Cc1ccccc1)C(=O)N[C@@H](Cc1c[nH]c2ccccc12)C(=O)N[C@@H](CS)C(=O)O)[C@@H](C)O [LALF] (H-CHYRIKPTFRRLKWKYKGKFWC-OH)
[1]; 14 and 28 μg/ml
  Induction of an antiviral state in Hep-2 cells (in words): able to induce an antiviral state
[1]; Hep-2, 14 μg/ml
  Antiviral effect, 1: 35 IU/ml γ-IFN
  Antiviral effect, 2: 31.7 IU/ml γ-IFN
  Antiviral effect, 3: 22 IU/ml γ-IFN
  Antiviral effect, Mean: 29.5 IU/ml γ-IFN
[1]; Hep-2, 28 μg/ml
  Antiviral effect, 1: 28.7 IU/ml γ-IFN
  Antiviral effect, 2: 27 IU/ml γ-IFN
  Antiviral effect, 3: 31.4 IU/ml γ-IFN
  Antiviral effect, Mean: 28.3 IU/ml γ-IFN
Human mononuclear cells; 14 and 28 μg/ml, 18 h
  Release of protective mediator by human peripheral blood mononuclear cells (in words): induce them to release certain mediator capable of conferring protection to the Hep-2 cells against viral infections
Human mononuclear cells; [5]
  Antiviral effect of supernatant, 1: 28 IU/ml γ-IFN
  Antiviral effect of supernatant, 2: 27.6 IU/ml γ-IFN
  Antiviral effect of supernatant, 3: 20.4 IU/ml γ-IFN
  Antiviral effect of supernatant, Mean: 25.3 IU/ml γ-IFN
Human mononuclear cells; [6]
  Antiviral effect of supernatant, 1: 28.4 IU/ml γ-IFN
  Antiviral effect of supernatant, 2: 28 IU/ml γ-IFN
  Antiviral effect of supernatant, 3: 20 IU/ml γ-IFN
  Antiviral effect of supernatant, Mean: 25.4 IU/ml γ-IFN
Pseudomona aerukinosa; 14 μg/0.1 ml intraperitoneally 20 hours prior to challenge with 2×10^8 bacteria/mouse, followed 120 hours
  Survival (%): 36%
Pseudomona aerukinosa; administrated prophylactically
  Protection from lethal bacterial challenge (in words): protects mice from lethal bacterial challenge
TNF-α in mouse serum [2]
  Effect on systemic TNF after bacterial challenge (in words): induced a decrease of the proinflammatory cytokine TNF
TNF-α in mouse serum [3]
  TNF-α production in vivo (in words): does not stimulate TNF-α production
[4]
  TNF levels in LPS-activated macrophages (in words): down regulated
